In ChEMBL document CHEMBL5550181 (Bioorg Med Chem, 2024):
The source made the active and inactive calls. No cut-off for these calls is given here.

Assays:
[1] = species on record: Homo sapiens; experiment: Selectivity index, ratio of IC50 for inhibition of human 20S proteosome beta5c subunit using Ac-WLA-AMC as substrate to IC50 for inhibition of human LMP7 beta -5i subunit using Ac-ANW-AMC as substrate
[2] = biological target: T1, Proteasome subunit beta type-9 (Homo sapiens, UniProt P28065); experiment: Inhibition of human LMP2 beta-1i subunit using Ac-PAL-AMC as substrate preincubated with compound for 30 mins followed by substrate addition and measured after 1 hr by fluorescence based analysis
T1 sequence (P28065 whole entry): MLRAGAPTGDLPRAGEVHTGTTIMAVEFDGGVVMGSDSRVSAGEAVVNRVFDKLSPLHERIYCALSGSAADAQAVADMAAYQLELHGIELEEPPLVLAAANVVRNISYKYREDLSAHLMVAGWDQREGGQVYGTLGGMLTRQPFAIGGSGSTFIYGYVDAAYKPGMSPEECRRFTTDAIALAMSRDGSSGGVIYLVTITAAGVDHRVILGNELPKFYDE

[3] = biological target: T2, Proteasome subunit beta type-8 (Homo sapiens, UniProt P28062); experiment: Inhibition of human LMP7 beta -5i subunit using Ac-ANW-AMC as substrate preincubated with compound for 30 mins followed by substrate addition and measured after 1 hr by fluorescence based analysis
T2 sequence (P28062 whole entry): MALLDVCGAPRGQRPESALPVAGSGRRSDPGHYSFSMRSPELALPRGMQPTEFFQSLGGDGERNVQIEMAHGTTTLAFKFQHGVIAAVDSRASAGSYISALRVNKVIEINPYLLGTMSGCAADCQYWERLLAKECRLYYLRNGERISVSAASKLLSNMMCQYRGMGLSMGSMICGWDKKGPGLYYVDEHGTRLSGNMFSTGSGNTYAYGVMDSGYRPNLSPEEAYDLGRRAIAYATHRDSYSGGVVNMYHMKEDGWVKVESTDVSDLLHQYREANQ

[4] = biological target: T3, Proteasome Macropain subunit MB1 (Homo sapiens, UniProt P28074); experiment: Inhibition of human 20S proteosome beta5c subunit using Ac-WLA-AMC as substrate preincubated with compound for 30 mins followed by substrate addition and measured after 1 hr by fluorescence based analysis
T3 sequence (P28074 whole entry): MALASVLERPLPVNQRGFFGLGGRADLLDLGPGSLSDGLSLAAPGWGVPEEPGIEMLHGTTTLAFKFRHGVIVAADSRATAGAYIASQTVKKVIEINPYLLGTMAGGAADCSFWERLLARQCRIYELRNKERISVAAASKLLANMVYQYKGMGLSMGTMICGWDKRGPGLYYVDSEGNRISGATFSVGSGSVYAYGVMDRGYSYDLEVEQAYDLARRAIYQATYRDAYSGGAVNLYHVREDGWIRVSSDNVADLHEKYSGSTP

[5] = Drug metabolism in human liver microsomes assessed as reactive metabolite formation by measuring dGSH trapping measured per mg of protein incubated for 60 mins in presence of NADPH by HPLC analysis; format: ADME, Microsome; settings: 1 h
[6] = species on record: Homo sapiens; experiment: Selectivity index, ratio of IC50 for inhibition of human 20S proteosome beta5c subunit using Ac-WLA-AMC as substrate to IC50 for inhibition of human LMP2 beta-1i subunit using Ac-PAL-AMC as substrate
[7] = system: Plasma; experiment: Reduction in NP30-specific IgG level in plasma of NP-OVA-induced C57BL/6 mouse model at 30 mg/kg, po administered for 9 days by ELISA analysis; format: functional, organism-based; settings: time 9.0 day
[8] = Effect on hematological parameters in C57BL/6 mouse at 3 to 30 mg/kg, po administered for 9 days; format: toxicity, organism-based; settings: in vivo, 216 h, dose 3-30 mg/kg, time 9 day
[9] = Permeability of the compound by PAMPA assay; format: ADME; settings: read-out: permeability
[10] = Microsomal stability in mouse liver microsome assessed as intrinsic clearance; format: ADME; settings: liver microsomes, read-out: CLH
[11] = system: Mus musculus; experiment: Reduction in NP30-specific IgG level in GCB of NP-OVA-induced C57BL/6 mouse model at 10 to 30 mg/kg, po administered for 9 days by flow cytometry analysis; format: functional, organism-based; settings: dose 10-30 mg/kg, time 9.0 day
[12] = system: Mus musculus; experiment: Inhibition of NP30-IgG production in NP-OVA-induced po dosed C57BL/6 mouse model administered for 9 days by ELISA analysis; format: functional, organism-based; settings: dose 3-30 mg/kg, time 9.0 day

Compound: O=C(N[C@@H](CC1CCC1)B(O)O)c1cn(C2CCCCC2)nn1
- Ratio IC50 [1]: 66
- IC50 [2]: < 5 nM
- IC50 [3]: 198 nM
- IC50 [4]: 13100 nM

Compound: CC(C)C[C@H](NC(=O)c1ccc(C2CCCCC2)nn1)B(O)O
- Ratio IC50 [1]: 36
- IC50 [2]: 10 nM
- IC50 [3]: 82 nM
- IC50 [4]: 2950 nM

Compound: CC(C)C[C@H](NC(=O)c1cc(C2CCCCC2)no1)B(O)O
- Ratio IC50 [1]: 19
- IC50 [2]: 5 nM
- IC50 [3]: 192 nM
- IC50 [4]: 3690 nM

Compound: CC(C)C[C@H](NC(=O)c1cc(C2CCCCC2)n(C)n1)B(O)O
- Ratio IC50 [1]: > 7
- IC50 [2]: 188 nM
- IC50 [3]: 11200 nM
- IC50 [4]: > 80000 nM

Compound: CC(C)C[C@H](NC(=O)c1cc(C2CCCCC2)nn1C)B(O)O
- Ratio IC50 [1]: 22
- IC50 [2]: 226 nM
- IC50 [3]: 888 nM
- IC50 [4]: 19500 nM

Compound: O=C(N[C@@H](Cc1coc2ccccc12)B(O)O)[C@@H]1C[C@H]2CC[C@@H]1O2
- Ratio IC50 [1]: 302
- IC50 [2]: > 80000 nM
- IC50 [3]: 8 nM
- IC50 [4]: 2410 nM

Compound: CC(C)C[C@H](NC(=O)c1cnn(C2CCCCC2)n1)B(O)O
- Ratio IC50 [1]: 4
- IC50 [2]: 62 nM
- IC50 [3]: 1570 nM
- IC50 [4]: 6310 nM

Compound: O=C(N[C@@H](CC1CCCC1)B(O)O)c1cn(C2CCCCC2)nn1
- Ratio IC50 [1]: 244
- IC50 [2]: < 5 nM
- IC50 [3]: 63 nM
- IC50 [4]: 15400 nM
- Drug metabolism [5]: 426 pmol/h

Compound: O=C(N[C@@H](CC1CCCCC1)B(O)O)c1cn(C2CCCCC2)nn1
- Ratio IC50 [1]: 150
- IC50 [2]: < 10 nM
- IC50 [3]: 130 nM
- IC50 [4]: 19500 nM
- Drug metabolism [5]: 680 pmol/h

Compound: CC(C)C[C@H](NC(=O)c1cn(C2CCCCC2)nn1)B(O)O
- Ratio IC50 [6]: 1070
- Ratio IC50 [1]: 44
- IC50 [2]: 3 nM
- IC50 [3]: 73 nM
- IC50 [4]: 3220 nM
- Drug metabolism [5]: 1273 pmol/h

Compound: CC(C)C[C@H](NC(=O)c1cc(C2CCCCC2)on1)B(O)O
- Ratio IC50 [1]: 21
- IC50 [2]: 9 nM
- IC50 [3]: 145 nM
- IC50 [4]: 2980 nM

Compound: O=C(N[C@@H](Cc1ccccc1)B(O)O)c1cn(C2CCCCC2)nn1
- Ratio IC50 [1]: 38
- IC50 [2]: 5 nM
- IC50 [3]: 8 nM
- IC50 [4]: 302 nM
- Drug metabolism [5]: 736 pmol/h

Compound: O=C(N[C@H](B(O)O)C1CCCC1)c1cn(C2CCCCC2)nn1
- Ratio IC50 [1]: 39
- IC50 [2]: 18 nM
- IC50 [3]: 132 nM
- IC50 [4]: 5200 nM

Compound: Cc1c(C(=O)N[C@@H](CC(C)C)B(O)O)nnn1C1CCCCC1
- Ratio IC50 [1]: 39
- IC50 [2]: 189 nM
- IC50 [3]: 1210 nM
- IC50 [4]: 47300 nM

Compound: COc1ccc([C@@H](O)[C@H](NC(=O)[C@H](C)NC(=O)CN2CCOCC2)C(=O)N[C@@H](CC2=CCCC2)C(=O)[C@@]2(C)CO2)cc1 [ZETOMIPZOMIB]
- Ratio IC50 [6]: 1.29
- Ratio IC50 [1]: 9.6
- IC50 [2]: 557 nM
- IC50 [3]: 75 nM
- IC50 [4]: 720 nM

Compound: O=C(N[C@H](B(O)O)C1CCC1)c1cn(C2CCCCC2)nn1
- Ratio IC50 [1]: 8
- IC50 [2]: < 5 nM
- IC50 [3]: 655 nM
- IC50 [4]: 4950 nM

Compound: CC(C)C[C@H](NC(=O)c1cnn(C2CCCCC2)c1)B(O)O
- Ratio IC50 [1]: > 4
- IC50 [2]: 132 nM
- IC50 [3]: 18800 nM
- IC50 [4]: > 80000 nM

Compound: O=C(N[C@H](B(O)O)C1CCCCC1)c1cn(C2CCCCC2)nn1
- Ratio IC50 [1]: 174
- Activity [7]: Active
- IC50 [2]: 10 nM
- IC50 [3]: 257 nM
- Activity [8]: Non-Toxic
- Papp [9]: 11.9 ×10⁻⁶ cm/s
- microsomal CLint [10]: 99 µL/min/mg
- Activity [11]: Active
- inhibition [12]: Dose-Dependent Effect
- IC50 [4]: 44600 nM
- Drug metabolism [5]: 342 pmol/h
